The values that follow come from patent US20110086908A9, “USE OF PHOSPHATASE INHIBITORS FOR THE TREATMENT OF NEURODEGENERATIVE DISEASES” (priority 2007, published 2011).

“Also recorded” adds a separate entry of the source. Where only a bound is given, the exact number is not on record here.

Test [1] concerns hippocampal LTP in slices from wildtype, I-1* control and I-1* transgenic mice. The experiment in a line: Aβ-oligomers bath application to acute hippocampal slices, LTP measurement. It counts as cell-based, mouse.
The target of a further test is T1, calcineurin (Homo sapiens, UniProt Q08209).
T1 construct: purchased Biomol
T1 sequence (P63098 2-170, other chains not shown): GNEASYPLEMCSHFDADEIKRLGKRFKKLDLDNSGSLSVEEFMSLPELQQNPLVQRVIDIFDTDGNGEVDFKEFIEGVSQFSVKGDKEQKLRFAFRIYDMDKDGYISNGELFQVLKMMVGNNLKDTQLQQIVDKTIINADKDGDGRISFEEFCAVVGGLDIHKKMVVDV
Briefly: Phosphatase activity assay (Biomol Green Assay-Kit), calcineurin. It counts as biochemical. As to conditions: 1 nM tautomycin. On the procedure: (§1) Activity of recombinant PP1 (NEB) and calcineurin (Biomol) was measured with and without 1 nM tautomycin using the Biomol Green Assay-Kit (Biomol) according to manufacturer's instruction.

The test system of test [2] is hippocampal LTP in slices from arcAβ mice and wt littermates. Briefly: Tautomycin bath application to acute hippocampal slices, LTP measurement (fEPSP recordings). In kind it is cell-based, mouse. As to conditions: 1 nM tautomycin, at least 1 h before recording.
For the next test, the target named is T2, recombinant PP1 (Oryctolagus cuniculus, UniProt P62139).
T2 construct: purchased NEB
T2 sequence (P62139 whole entry): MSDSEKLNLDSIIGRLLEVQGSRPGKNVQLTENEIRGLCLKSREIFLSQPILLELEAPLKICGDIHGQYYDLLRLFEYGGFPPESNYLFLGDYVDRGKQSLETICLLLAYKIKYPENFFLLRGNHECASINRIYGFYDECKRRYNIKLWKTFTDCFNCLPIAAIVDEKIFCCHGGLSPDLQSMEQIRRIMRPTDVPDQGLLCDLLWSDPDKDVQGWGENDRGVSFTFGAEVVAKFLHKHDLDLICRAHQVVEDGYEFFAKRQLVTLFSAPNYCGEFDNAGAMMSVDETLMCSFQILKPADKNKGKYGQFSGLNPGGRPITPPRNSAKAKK
The experiment in a line: PP1 activity assay (Biomol Green Assay-Kit). In kind it is biochemical. As to conditions: 1 nM tautomycin. On the procedure: as §1

Turning to “Aβ-oligomers: oligomers produced from synthetic Aβ 1-42 (Bachem) according to Klein”, the “effect on LTP in slices from I-1* control mice (in words)” value in test [1] (Aβ-oligomers bath-applied at least 1 h, I-1* littermate controls) was “impair LTP; also recorded: Aβ-oligomers mediated LTP deficit”. For the same molecule, in test [1] (Aβ-oligomers bath-applied at least 1 h, I-1* transgenic mice), the “effect on LTP in slices from I-1* transgenic (mutant) mice with reduced PP1 activity (in words)” value is recorded as “not in mutant mice; also recorded: failed to inhibit LTP”. Moreover, the “effect on LTP in slices from wildtype mice (in words)” value in test [1] (Aβ-oligomers corresponding to 0.5 μM initial peptide, bath-applied at least 1 h) was “impair LTP; also recorded: LTP was inhibited”.
For the molecule `CO[C@H]([C@H](O)CC(=O)[C@@H](C)[C@@H](O)CC[C@@H](C)[C@@H]1O[C@]2(CC[C@@H](C)[C@H](CC[C@H](C)C(C)=O)O2)CC[C@@H]1C)[C@H](OC(=O)C[C@@H](O)C1=C(C)C(=O)OC1=O)C(C)C` [tautomycin], at calcineurin, the inhibition at 0.001 µM is below 10% and the “inhibition of calcineurin activity (in words)” value is listed as “not calcineurin”. The “effect on LTP deficit in slices from arcAβ (tg) mice (in words)” value in test [2] (3 months old arcAβ mice) was “fully rescued the LTP deficit; also recorded: full rescue of LTP”. Further, the “effect on LTP in slices from wt (non-transgenic) mice (in words)” value in test [2] (wt littermates) is “has no effect”. On recombinant PP1, the inhibition at 0.001 µM was around 90% and the “inhibition of recombinant PP1 activity (in words)” value was “specifically inhibits the activity of recombinant PP1”.

As usually defined, the inhibition is the drop in the measured response relative to a control, in per cent.
